Measurements taken from patent US6087371A, “Heterocyclyl-ergoline derivatives as 5-HT1A receptor ligands” (Pharmacia & Upjohn S.p.A., priority 1996, dated 2000).
Like-named read-outs stand apart in the source and are kept apart here.

Tests used:
5-HT2 receptor = target: T1, 5-HT2 receptor (Rattus norvegicus, UniProt P14842); assay: Affinity for serotonin 2 (5-HT2) receptor, 3H-Ketanserin binding test
T1 construct: Freezed cerebral cortex dissected out from rats were homogenized; from tissue; host or cells: rat cerebral cortex, crude synaptosomal membranes
Experimental: Affinity for serotonin 2(5-HT2)receptor (^3 H-Ketanserin binding test).
The supernatant was centrifuged at 40,000× g for 20 minutes at 0° C. and the resulting pellets was homogenized in 30 volumes of ice-cold 50 mM Tris-HCI buffer (pH.7.7) and incubated at 37° C. for 10 minutes. The suspension was centrifuged at 40,000× g for 20 minutes at 0° C. again. The resulting pellet was homogenized in 100 volumes of the above buffer and provided as synaptosome membranes solution for the next assay.
To the aliquots (900 m) of synaptosome membranes solution were added 50 ml solution of ^3 H-Ketanserin solution at the terminal concentration of […] and 50 ml of test compound or its medium, and incubated at 37° C. for 20 minutes. After completion of the reaction, the mixture was rapidly vacuum-filtered through Whatman^R GF/B filters. The filters were washed three times with 5 ml of the above buffer, and then the radioactivity of the residue remaining on the filters was measured by liquid scintillation counter. Non specific binding was determined under the presence of […] of mianserin.

D2 receptor = target: T2, D2 receptor (Rattus norvegicus, UniProt P61169); assay: Affinity for dopamine 2 (D2) receptor, 3H-Spiperone binding test; details: rat corpus striatum, 3H-Spiperone 0.2 nM, 37° C. 20 minutes; read-out: D2 affinity expressed as IC50
T2 construct: Freezed corpus striatum dissected out from rats were homogenized; from tissue; host or cells: rat corpus striatum, crude synaptosomal membranes
Experimental: Affinity for dopamine 2 (D2)receptor (^3 H-Spiperone binding test.)
Preparation of crude synaptosome fraction and binding assays were conducted in accordance with the method reported in European Journal of Pharmacology, vol 46, page 377,1977 by I.Creese et al. Freezed corpus striatum dissected out from rats were homogenized in 100 volumes of ice cold 50 mM Tris-HCl buffer (pH.7.7) and the suspension was centrifuged at 500× g for 10 minutes at 0° C.
The supernatant was centrifuged at 50,000× g for 15 minutes at 0° C. and the resulting pellet was homogenized in 100 volumes of the above buffer and then the suspension was centrifuged at 50,000× g for 15 minutes at 0° C. again. The resulting pellet was homogenized in 150 volumes of 50 mM Tris-HCl buffer (PH 7.1) containing 120 mM potassium chloride, 2 mM calcium chloride, 1 mM magnesium chloride, 0,1 ascorbic acid and […] pargyline. The suspension was incubated at 37° C. for 10 minutes and then provided as synaptosome membranes solution for the next assays. To the aliquots (900 m) of synaptosome membranes solution were added 50 ml of H-Spiperone solution at the terminal concentration of 0.2 nM and 50 ml of test compound solution or 50 ml of its medium, and incubated at 37° C. for 20 minutes. After completion of the reaction, the mixture was rapidly vacuum-filtered through Whatman^R GF/B filters. The filters were washed three times with 5 ml of the above buffer, and then the radioactivity of the residue remaining on the filters was measured by liquid scintillation counter. Nonspecific binding was determined under presence of […] of L)-Sulpiride 50% Inhibition concentration (IC50) of the test compound was graphically determined.

5-HT1A receptor = target: T3, 5-HT1A receptor (Rattus norvegicus, UniProt P19327); assay: Affinity for serotonin 1A (5-HT1A) receptor, 3H-8-OH-DPAT binding test
T3 construct: Freezed hippocampus dissected out from rats were homogenized; from tissue; host or cells: rat hippocampus, crude synaptosomal membranes
T3 sequence (P19327 1-422): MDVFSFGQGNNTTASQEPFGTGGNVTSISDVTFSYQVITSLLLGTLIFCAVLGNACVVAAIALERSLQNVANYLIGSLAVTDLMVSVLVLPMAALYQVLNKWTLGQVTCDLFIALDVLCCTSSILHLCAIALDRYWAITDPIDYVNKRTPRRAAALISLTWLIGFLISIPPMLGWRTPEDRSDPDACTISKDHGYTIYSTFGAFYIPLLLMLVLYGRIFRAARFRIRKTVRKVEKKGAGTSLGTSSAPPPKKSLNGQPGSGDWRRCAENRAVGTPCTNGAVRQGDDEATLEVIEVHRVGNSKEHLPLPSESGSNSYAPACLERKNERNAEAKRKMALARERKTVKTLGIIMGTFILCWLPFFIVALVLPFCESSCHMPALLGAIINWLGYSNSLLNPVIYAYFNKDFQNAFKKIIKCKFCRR
Experimental: Affinity for serotonin 1A (5-HT1A) receptor [^3 H-8-Hydroxy-2-dipropylaminotetralin (^3 H-8-OH-DPAT)binding test]
Preparation of crude synaptosome fraction and binding assay were conducted in accordance with the method reported in Journal of Neurochemistry, vol 44, page 1685, 1985 by Hall et al. Freezed hippocampus dissected out from rats were homogenized in 40 volumes of ice cold 50 mM Tris-HCl buffer (pH. 7.4) and the suspension was centrifuged at 500× g for 10 minutes at 0° C.
The supernatant was centrifuged at 40,000× g for 20 minutes at 0° C. and the resulting pellet was homogenized in 40 volumes of the above buffer and incubated at 37° C. for 10 minutes. After completion of reaction, the suspension was centrifuged at 40,000× g for 20 minutes at 0° C. The resulting pellet was washed twice by resuspension in 40 volumes of the above buffer and centrifugation, and finally suspended in 60 volumes of ice-cold 50 mM Tris-HCI buffer (pH 7.4) containing 1 mM manganese chloride for use in the next assay.
To the aliquots ([…]) of synaptosome membranes solution were added 50 ml of tritiated 8-OH-DPAT solution at the terminal concentration of 0.2 nM and 50 ml of test compound solution or 50 ml of its medium, and incubated at 37° C. for 10 minutes. Then to the mixture was added 5 ml of ice-cold 50 mM Tris-HCI buffer (pH 7.4) rapidly vacuum-filtered through Whatman^R GF/B filters and washed twice with 5 ml of the same buffer. The radioactivity of the residue remaining on the filters was measured by liquid scintillation counter. Nonspecific binding was determined under the presence of 10^-5 M serotonin (5-HT). 50% Inhibition concentration (IC50) of the test compound was graphically determined.

PKC = PKC translocation in hippocampal synaptosomes (Western blot); assay type: cell-based; details: 15 min at 30° C., control = 100, dose not given
Experimental: PKC translocation in different brain's area
Purified synaptosomes have been obtained following the procedure described by Dunkley (Dunkley P. R., Health J. W:, Harrison S. M., Jarvie P. E., Glenfield P. J. and Rostas J. A. P.
A rapid percolation gradient procedure for isolation of synaptosomes directly from Si fraction: homogeneity and morphology of subcellular fractions. Brain res 441:59-71, 1988).
Synaptosomes purified from cortex, hippocampus were incubated (10 mg/ml) for 15 min at 30° C. in presence of increasing doses of the compounds of the present invention dissolved in tartaric acid (pH 7.0) or of the vehicle alone.
After incubation, purified synaptosomes were collected in cold Krebs buffer containing 10 mM EGTA and then processed according to Shearmann et al (Shearman M. S., Shinomura T., Oda T. and Nishizuka Y. Protein kinase C subspecies in adult rat hippocampal synaptosomes. Activation by diacylglycerol and arachidonic acid. FEBS Lett 279:261-264, 1991).
Synaptosomes have been lysed in this solution for 30 min at 4° C. with stirring. […]
PKC on Western blots was detected with a polyclonal total PKC antibody (Upstate Biotechnology). […] Antigen antibody complexes were detected by enhanced chemiluminescence. Results have been analysed by computer assisted Image analysis and expressed as per cent of PKC translocation in control conditions.

D1 receptor = assay: Affinity for D1 receptor (method not described); assay type: binding; details: read-out: D1 affinity expressed as IC50
[1] = rat hippocampus, 3H-8-OH-DPAT 0.2 nM, 37° C. 10 minutes, read-out: 5-HT1A affinity expressed as IC50

T1 sequence (P14842 whole entry): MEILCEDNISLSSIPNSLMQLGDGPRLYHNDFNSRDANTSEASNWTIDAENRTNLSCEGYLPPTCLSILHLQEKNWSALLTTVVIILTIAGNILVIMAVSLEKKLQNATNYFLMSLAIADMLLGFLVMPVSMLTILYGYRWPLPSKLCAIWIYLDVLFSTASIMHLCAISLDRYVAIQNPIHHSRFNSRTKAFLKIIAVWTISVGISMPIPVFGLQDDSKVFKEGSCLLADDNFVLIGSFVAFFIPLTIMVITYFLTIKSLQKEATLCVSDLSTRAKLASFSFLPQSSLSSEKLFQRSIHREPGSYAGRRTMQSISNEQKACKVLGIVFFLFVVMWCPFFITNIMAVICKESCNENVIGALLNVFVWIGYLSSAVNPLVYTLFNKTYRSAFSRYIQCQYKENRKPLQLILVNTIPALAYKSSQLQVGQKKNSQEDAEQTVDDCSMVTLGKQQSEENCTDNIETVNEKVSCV
T2 sequence (P61169 whole entry): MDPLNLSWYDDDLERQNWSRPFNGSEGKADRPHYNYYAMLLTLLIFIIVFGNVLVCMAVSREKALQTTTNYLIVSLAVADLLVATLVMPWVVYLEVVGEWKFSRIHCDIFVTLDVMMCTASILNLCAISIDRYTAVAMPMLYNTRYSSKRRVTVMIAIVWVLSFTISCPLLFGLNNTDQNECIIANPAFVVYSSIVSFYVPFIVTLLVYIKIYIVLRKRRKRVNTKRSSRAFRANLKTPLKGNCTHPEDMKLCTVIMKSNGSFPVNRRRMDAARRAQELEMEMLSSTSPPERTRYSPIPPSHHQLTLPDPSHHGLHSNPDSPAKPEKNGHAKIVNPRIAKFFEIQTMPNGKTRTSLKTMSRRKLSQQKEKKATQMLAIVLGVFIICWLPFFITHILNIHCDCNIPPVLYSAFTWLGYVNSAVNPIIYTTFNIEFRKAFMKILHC

In the case of CO[C@]12C[C@@H](Cc3noc(-c4cncc(Br)c4)n3)CN(C)[C@@H]1Cc1cn(C)c3cccc2c13 [Example 2, 1,6-Dimethyl-8β-methyl-[5-(5-bromo-pyridin-3-yl)-1,2,4-oxadiazol-3-yl]-10α-methoxy-ergoline], the IC50 (5-HT2 receptor) is reported as 2400 nM, the IC50 (D2 receptor) is reported as 3640 nM and the IC50 (5-HT1A receptor; [1]) is reported as 200 nM.

In the case of CO[C@]12C[C@@H](Cc3nc(-c4cncc(Br)c4)no3)CN(C)[C@@H]1Cc1cn(C)c3cccc2c13 [Example 4, 1,6-Dimethyl-8β-methyl-[3-(5-bromo-pyridin-3-yl)-1,2,4-oxadiazol-5-yl]-10α-methoxy-ergoline], the IC50 (5-HT2 receptor) is reported as 3400 nM, the “PKC translocation in hippocampal synaptosomes, expressed as per cent of PKC translocation in control conditions” value (PKC) is reported as 126 per cent and the IC50 (D2 receptor) is reported as 2930 nM. The IC50 (5-HT1A receptor; [1]) was 300 nM.

CO[C@]12C[C@@H](c3nnc(-c4cncc(Br)c4)o3)CN(C)[C@@H]1Cc1cn(C)c3cccc2c13 [Example 8, 1,6-Dimethyl-8β-[2-(5-bromo-pyridin-3-yl)-1,3,4-oxadiazol-5-yl]-10α-methoxy-ergoline] was tested, and the IC50 (5-HT2 receptor) was 27 nM, the IC50 (D1 receptor) was 2040 nM and the IC50 (D2 receptor) was 1950 nM. It also gave an IC50 (5-HT1A receptor) of 9 nM.

For CO[C@]12C[C@@H](Cc3nnc(-c4cncc(Br)c4)o3)CN(C)[C@@H]1Cc1cn(C)c3cccc2c13 [Example 10, 1,6-Dimethyl-8β-methyl-[2-(5-bromo-pyridin-3-yl)-1,3,4-oxadiazol-5-yl]-10α-methoxy-ergoline], the IC50 (5-HT2 receptor) was 890 nM, the IC50 (D2 receptor) was 2510 nM and the IC50 (5-HT1A receptor) was 11 nM.
